≈ marks a conversion by molar mass, not a printed value. Read-outs that look alike come from different tables or passages of the source.
What was measured:
Assay type in all cases: cell-based
[1] = LDH cytotoxic activity assay, HeLa; conditions: human, HeLa cells
Experimental: (§1) The cell lines were cultured in a cell medium (Dulbecco’s modified eagle’s or RPMI 1640) enriched with 10% (v/v) fetal bovine serum and 2% (v/v) Penicillin-Streptomycin (10,000 U/mL). First, old medium was removed out of the flask when the cells reached approximately 80% confluence. Next, cells were taken from the flasks surface using trypsin-EDTA solution and then subjected to centrifugation. Following, the cell pellet was suspended with fresh media and was inoculated into wells.
(§2) Approximately 5 × 10^3 cells in 100 μL were placed into 96-well plates as triplicates and treated with 25, 50, 75, and 100 μg/mL concentrations of test compounds at 37 °C with 5% CO2 for 24 h. LDH activity was obtained by determining absorbance at 492–630 nm using a microplate reader.

S. mutans ATCC 35668 = experiment: Microdilution MIC assay; conditions: S. mutans ATCC 35668, 24 h at 35 °C
Experimental: (§3) MIC values of the compounds against bacterial strains were determined on the basis of a microwell dilution method. […] […]. Growth of microorganisms was determined visually after incubation for 24 h at 35 °C. The lowest concentration at which there was no visible growth (turbidity) was taken as the MIC.

[2] = tested on: P. aeruginosa AGME ATCC 27853; experiment: Microdilution MIC assay; conditions: Pseudomonas aeruginosa, ATCC27853; P. aeruginosa AGME ATCC 27853, 24 h at 35 °C
Experimental: as §3

[3] = tested on: S. aureus MRSA ATCC 46300; experiment: Microdilution MIC assay; conditions: Staphylococcus aureus; S. aureus MRSA ATCC 46300, 24 h at 35 °C; read-out: MIC
Experimental: as §3

[4] = tested on: E. faecalis VRE ATCC 19433; experiment: Microdilution MIC assay; conditions: Enterococcus faecalis; E. faecalis VRE ATCC 19433, 24 h at 35 °C
Experimental: as §3

E. coli ATCC 25922 = experiment: Microdilution MIC assay; conditions: Escherichia coli, ATCC25922; E. coli ATCC 25922, 24 h at 35 °C
Experimental: as §3

[5] = tested on: A. actinomycetemcomitans ATCC 33384; experiment: Microdilution MIC assay; conditions: Aggregatibacter actinomycetemcomitans, ATCC33384; A. actinomycetemcomitans ATCC 33384, 24 h at 35 °C
Experimental: as §3

[6] = tested on: S. aureus MSSA ATCC 29213; experiment: Microdilution MIC assay; conditions: S. aureus MSSA ATCC 29213, 24 h at 35 °C
Experimental: as §3

E. coli ESBL ATCC 35218 = experiment: Microdilution MIC assay; conditions: Escherichia coli, ATCC35218; E. coli ESBL ATCC 35218, 24 h at 35 °C
Experimental: as §3

S. aureus ATCC 25923 = experiment: Microdilution MIC assay; conditions: Staphylococcus aureus, ATCC25923, 24 h, S. aureus ATCC 25923, 24 h at 35 °C; read-out: MIC
Experimental: as §3

S. gordonii NCTC 7870 = experiment: Microdilution MIC assay; conditions: Streptococcus gordonii, NCTC7870; S. gordonii NCTC 7870, 24 h at 35 °C
Experimental: as §3

[7] = LDH cytotoxic activity assay, HT29; conditions: human, HT29 cells; for cytotoxicity at 24 h, 25 μg/mL: HT29, 25 μg/mL; for cytotoxicity at 24 h, 50 μg/mL: HT29, 50 μg/mL; for cytotoxicity at 24 h, 75 μg/mL: HT29, 75 μg/mL; for cytotoxicity at 24 h, 100 μg/mL: HT29, 100 μg/mL
Experimental: as §1, §2

C6 (Rat brain glioma) = experiment: cells; conditions: Rattus norvegicus; for LC50 (concentration giving 50% net cell loss relative to time zero): read-out: LC50; for GI50 / IC50 / IC (total growth inhibition): C6, MTT; for IC50: read-out: IC50; for IC (total growth inhibition): read-out: TGI
Experimental: as §1
(§4) A cell suspension containing approximately 1 × 10^4 cells in 100 μL was seeded into the wells of 96-well culture plates. […]. The final volume of the wells was set to 200 μL by medium. Cell proliferation assay was evaluated by MTT (yellow tetrazolium MTT (3-(4,5-dimethylthiazolyl-2)-2,5-diphenyltetrazolium bromide) methods. Briefly, an MTT stock solution (5 mg of MTT/mL of distilled water) was filtered and kept at −20 °C until use. The cells were exposed to an MTT reagent (consisting of one parts of MTT stock solutions and nine parts of fresh RPMI 1640 without phenol red) for 4 h to form MTT formazan dye followed by the dye dissolved in DMSO with Sorenson’s buffer for 30 min at room temperature and then the plate was measured at 560 nm, with 690 nm as a reference interval, using a microplate reader. Each experiment was repeated at least three times for each cell line.
(§5) IC50 value is a concentration that inhibits half of the cells in vitro. The half maximal inhibitory concentration (IC50) of the test and control compounds was calculated using XLfit5 or excel spreadsheet and represent in μM at 95% confidence intervals. The proliferation assay results were expressed as the percent inhibition according to the following formula: % Inhibition = [1 - (Absorbance of Treatments /Absorbance of DMSO) × 100]. Three dose response parameters (GI50, TGI, LC50) were calculated according to the following formulas using the absorbance measurements of time zero (Tz), control growth (C), and test growth in the presence of drug (Ti). Growth inhibition of 50% (GI50) was calculated from [(Ti-Tz)/(C-Tz)] × 100 = 50, which is the drug concentration resulting in a 50% reduction in the net growth increase in control cells during the drug incubation. The drug concentration resulting in total growth inhibition (TGI) was calculated from Ti = Tz. The LC50 indicating a net loss of cells following treatment was calculated from [(Ti-Tz)/Tz] × 100 = −50.

Hep3B = experiment: cells; conditions: Homo sapiens; for GI50 / IC50 / IC (total growth inhibition): MTT; for IC50: read-out: IC50; for IC (total growth inhibition): read-out: TGI; for LC50 (concentration causing 50% net cell loss relative to time zero): read-out: LC50
Experimental: as §1, §4, §5

in vitro = conditions: human, LC50
Experimental: as §1, §4, §5

normal FL cells = experiment: cells; conditions: for GI50 / IC50 / IC (total growth inhibition): FL normal cells, MTT; for IC50: read-out: IC50; for IC (total growth inhibition): read-out: TGI
Experimental: as §1, §4, §5

[8] = Streptococcus mutans, ATCC35668, 24 h, read-out: MIC
[9] = Staphylococcus aureus, 24 h, read-out: MIC

MIC (S. mutans ATCC 35668) | MIC (S. mutans ATCC 35668; [8]) | MIC [2] | MIC [3] | MIC [4] | MIC (E. coli ATCC 25922) | MIC [5] | MIC [6, 9] | MIC (E. coli ESBL ATCC 35218) | MIC (S. aureus ATCC 25923) | MIC (S. gordonii NCTC 7870) | SMILES | cytotoxicity at 24 h, 25 μg/mL [1] | cytotoxicity at 24 h, 50 μg/mL [1] | cytotoxicity at 24 h, 75 μg/mL [1] | cytotoxicity at 24 h, 100 μg/mL [1] | cytotoxicity at 24 h, 25 μg/mL [7] | cytotoxicity at 24 h, 50 μg/mL [7] | cytotoxicity at 24 h, 75 μg/mL [7] | cytotoxicity at 24 h, 100 μg/mL [7] | LC50 (concentration giving 50% net cell loss relative to time zero) (C6 (Rat brain glioma)) | further results
125 µg/mL (≈ 211 µM) | 62.5 to 125 µg/mL (≈ 105 to 211 µM) | > 1000 µg/mL | 500 µg/mL (≈ 844 µM) | 1000 µg/mL (≈ 1690 µM) | > 1000 µg/mL | > 1000 µg/mL | 1000 µg/mL (≈ 1690 µM) | > 1000 µg/mL | 500 µg/mL (≈ 844 µM) | > 1000 µg/mL | CC(=O)OC[C@H]1O[C@@H](Nc2nc(-c3ccncc3)cc(-c3ccc(C)cc3)n2)[C@H](OC(C)=O)[C@@H](OC(C)=O)[C@@H]1OC(C)=O [Compound 18, 2,3,4,6-tetra-O-acetyl-N-[4-(4-methylphenyl)-6-pyridin-4-ylpyrimidin-2-yl]-β-D-glucopyranosylamine] | 14.2% | 39% | 46.1% | 54.2% | 27.9% | 45.5% | 58.1% | 82.8% | 29.8 µg/mL (≈ 50.2 µM) | GI50 (C6 (Rat brain glioma)): 2.23 µg/mL (≈ 3.76 µM); IC50 (C6 (Rat brain glioma)): 30.1 µg/mL (≈ 50.9 µM); IC (total growth inhibition) (C6 (Rat brain glioma)): 5.21 µg/mL; GI50 (Hep3B): 6.15 µg/mL (≈ 10.4 µM); IC50 (Hep3B): > 500 µg/mL; IC (total growth inhibition) (Hep3B): > 500 µg/mL; LC50 (concentration causing 50% net cell loss relative to time zero) (Hep3B): > 500 µg/mL; LC50 (concentration causing 50% net cell loss) (in vitro): > 500 µg/mL; GI50 (normal FL cells): 2.01 µg/mL (≈ 3.39 µM); IC50 (normal FL cells): 7.46 µg/mL (≈ 12.6 µM); IC (total growth inhibition) (normal FL cells): 7.58 µg/mL; LC50 (normal FL cells; human): 352.27 µg/mL (≈ 594 µM)
125 µg/mL (≈ 211 µM) | 62.5 to 125 µg/mL (≈ 105 to 211 µM) | > 1000 µg/mL | 1000 µg/mL (≈ 1690 µM) | 1000 µg/mL (≈ 1690 µM) | > 1000 µg/mL | > 1000 µg/mL | 62.5 to 125 µg/mL (≈ 105 to 211 µM) | > 1000 µg/mL | > 1000 µg/mL | > 1000 µg/mL | CC(=O)OC[C@H]1O[C@@H](Nc2nc(-c3ccc(C)cc3)cc(-c3cccnc3)n2)[C@H](OC(C)=O)[C@@H](OC(C)=O)[C@@H]1OC(C)=O [Compound 17, 2,3,4,6-tetra-O-acetyl-N-[4-(4-methylphenyl)-6-pyridin-3-ylpyrimidin-2-yl]-β-D-glucopyranosylamine] | 16.7% | 23.8% | 32.4% | 48.6% | 21.7% | 35.8% | 51% | 75.7% | > 500 µg/mL | MIC [6]: 125 µg/mL (≈ 211 µM); GI50 (C6 (Rat brain glioma)): > 500 µg/mL; IC50 (C6 (Rat brain glioma)): > 500 µg/mL; IC (total growth inhibition) (C6 (Rat brain glioma)): > 500 µg/mL; GI50 (Hep3B): 3.86 µg/mL (≈ 6.51 µM); IC50 (Hep3B): > 500 µg/mL; IC (total growth inhibition) (Hep3B): > 500 µg/mL; LC50 (concentration causing 50% net cell loss relative to time zero) (Hep3B): > 500 µg/mL; LC50 (concentration causing 50% net cell loss) (in vitro): > 500 µg/mL; GI50 (normal FL cells): 17.2 µg/mL (≈ 29 µM); IC50 (normal FL cells): > 500 µg/mL; IC (total growth inhibition) (normal FL cells): > 500 µg/mL

From article PMC10387993, “New pyrimidine-N-β-D-glucosides: synthesis, biological evaluation, and molecular docking investigations” (Turkish Journal of Chemistry, 2023)
